The results in this text go back to patent US10787419B2, “Cannabinoid receptor mediating iminopyrazole compounds” (The United States of America, as represented by the …, priority 2012, dated 2020).

The nature of data set [1]: in vivo metabolism, metabolite generation in plasma by LC-MS/MS. The conditions noted are these: 1 h after oral 10 mg/kg in mice.
Data set [2] deals with CCl4-induced liver fibrosis. The data set can be described thus: CCl4-induced liver fibrosis model in mice. It is filed as in vivo. The protocol:
CCL-induced liver fibrosis was generated by intraperitoneal injection of CCL4 (1 ml/kg, diluted 1:10 corn oil), twice weekly for 8 weeks. […] Data represent mean±SEM from 7-8 mice per group. *P<0.05 relative to control. ^#indicates significant treatment effect (P<0.05) relative to CCl4-treated vehicle group.
Fibrosis results from excessive extracellular matrix deposition by myofibroblasts accompanying chronic inflammation and wound healing, and is a key pathogenic process in many organs, including kidneys, lung, and liver.

A further data set relates to DIO mice. The data set can be described thus: mice with diet-induced obesity (DIO) treated orally for 14 days. The data set is classed as in vivo. The protocol:
Glucose tolerance and insulin sensitivity were determined on the last 2 days of treatment, using i.p. glucose tolerance and insulin sensitivity tests.

The subject of the next data set is ZDF rats. The data set can be described thus: Zucker diabetic fatty (ZDF) rat model of type 2 diabetes. It is filed as in vivo. The conditions noted are these: 10 mg/kg/day oral gavage, 7 days.
In another data set the target is iNOS (Mus musculus (Mouse), UniProt P29477). Kind of data set: iNOS activity in lung homogenates from LPS-treated mouse. The data set is classed as biochemical.
The next data set deals with CB1 (Mus musculus (Mouse), UniProt P47746). Kind of data set: radioligand displacement assay in mouse brain membranes (Ki CB1). It is filed as binding. For orientation: In a radioligand displacement assay an active substance lowers the binding of a labelled ligand.
CB1, sequence (P47746 whole entry): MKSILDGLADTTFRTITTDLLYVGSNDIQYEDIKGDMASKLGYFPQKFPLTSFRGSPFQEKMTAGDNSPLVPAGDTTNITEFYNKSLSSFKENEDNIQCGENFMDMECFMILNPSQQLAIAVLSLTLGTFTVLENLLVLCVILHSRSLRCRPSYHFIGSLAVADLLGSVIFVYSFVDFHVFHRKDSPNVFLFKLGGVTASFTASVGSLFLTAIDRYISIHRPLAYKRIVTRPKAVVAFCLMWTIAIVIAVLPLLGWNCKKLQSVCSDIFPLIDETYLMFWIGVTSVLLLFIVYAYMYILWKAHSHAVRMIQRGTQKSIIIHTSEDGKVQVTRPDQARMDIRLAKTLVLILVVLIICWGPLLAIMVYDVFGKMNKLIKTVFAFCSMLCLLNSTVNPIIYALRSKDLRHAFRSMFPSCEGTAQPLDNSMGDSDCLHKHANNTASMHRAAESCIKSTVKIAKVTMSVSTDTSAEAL
A short description of data set [3]: tissue levels in brain and plasma after administration to mice. The conditions noted are these: 1 hour after 10 mg/kg to mice; indicating good oral bioavailability.
In the next data set the test system is recombinant human AMPK. The data set can be described thus: recombinant AMPK activity assay. The data set is classed as biochemical. The conditions noted are these: rimonabant at 1 μM. The source says: Guanides and biguanides, such as metformin, are effective as antidiabetic agents linked to their AMPK activating properties (Hardie et al., Chem Biol. 2012, […]; 1222-1236). Guanidine-containing analogs in certain embodiments were screened for activation of recombinant human AMPK, using an assay kit (Cyclex, Nagona, Japan), as illustrated in FIG. 8.
Activators of AMP-activated protein kinase (AMPK), such as guanidines of biguanides such as metformin are useful for the treatment of diabetes owing to their AMPK activating property (Hardie, et al., Chem & Biol 2012, 19(10); 1222-1236). Guanidine analogues of certain embodiments were screened for AMPK activation by using a recombinant AMPK activity assay.

Where [4] appears, read: 10 mg/kg/day orally for 4 weeks.
[5] abbreviates: DIO mice, 10 mg/kg/day oral, 14 days.

Protocol for iNOS: Cellular iNOS activity was determined after replacing growth medium with reaction mixtures containing appropriate ligands (100 nM). ^& Mice were treated in vivo with vehicle or LPS (25 mg/kg, ip) and sacrificed 6 h later. Crude homogenate prepared from lung were incubated with the indicated ligands and iNOS activity was determined using a radioactivity-based assay.

Broadly, the inhibition is the change of the read-out against control, counted positive when it falls. High values mean a response far below the control, low ones a response near the control. As for `CC(=N)N/C(=N\S(=O)(=O)c1ccc(Cl)cc1)N1CC(c2ccccc2)C(c2ccc(Cl)cc2)=N1` (racemic) [Compound 2, 3-(4-chlorophenyl)-N′-((4-chlorophenyl)sulfonyl)-N-(1-iminoethyl)-4-phenyl-4,5-dihydro-1H-pyrazole-1-carboximidamine], the in vivo metabolism entry in data set [1] was “underwent in vivo metabolism to liberate the amidine moiety and a metabolite”. In data set [2] (setting [4]), the “CCl4-induced collagen deposition / liver fibrosis by Sirius red and Masson's trichrome staining” value is “more effective than rimonabant”; the “CCl4-induced elevation of iNOS immunostaining” value (from here on “CCl4-induced elevation”) is recorded as “attenuated”; the “α-SMA, Procollagen-1 and Fibronectin-1 mRNA” value is recorded as “more effective than rimonabant”. In the data set with DIO mice (setting [5]), the “hepatic TG” value was “reduced”, the hyperinsulinemia result is given as “abrogated” and the hyperleptinemia result was “reduced”. The molecule also yielded a food intake reduction with DIO mice (DIO mice, 10 mg/kg/day oral, during the first week) of approximately 20%. In addition, the “glucose intolerance and insulin resistance” value with DIO mice (DIO mice, 10 mg/kg/day oral, i.p. glucose tolerance and insulin sensitivity tests, last 2 days) is recorded as “nearly completely normalized”. In addition, the “In vivo Comments” value in the data set on DIO mice (mouse, in vivo) is “anti-diabetic anti-obesity”. Besides, in the data set with ZDF rats, the blood glucose result is “prevented the increase in blood glucose”; the “insulin and c-peptide levels” value is recorded as “prevented”. The inhibition at 1 µM on iNOS was approximately 48%.

As a reminder, the Ki is the equilibrium dissociation constant of an inhibitor or competing ligand from its target. High values mean lower affinity, low ones higher affinity. On to `NC=NC(=NS(=O)(=O)c1ccc(Cl)cc1)N1CC(c2ccccc2)C(c2ccc(Cl)cc2)=N1` (stereo not shown) [Compound 1], for which affinity on CB1 (Table 2) was put at a Ki of 392 nM.

On to `CC(=N)N/C(=N\S(=O)(=O)c1ccc(Cl)cc1)N1C[C@H](c2ccccc2)C(c2ccc(Cl)cc2)=N1` [Compound 2E1], for which, in data set [2] (setting [4]), the “CCl4-induced collagen deposition / liver fibrosis by Sirius red and Masson's trichrome staining” value was “more effective than rimonabant”; the “CCl4-induced elevation” value is given as “dramatically attenuated”. For the same molecule, the “anti-fibrotic efficacy in liver fibrosis” value in data set [2] (compared with rimonabant) is “higher anti-fibrotic efficacy than rimonabant”. The “plasma levels after oral or i.p. administration” value in data set [3] is “comparable”.

Regarding `N=C(N/C(=N\S(=O)(=O)c1ccc(Cl)cc1)N1CC(c2ccccc2)C(c2ccc(Cl)cc2)=N1)C1CC1` (stereo not shown) [Compound 4], the Ki on CB1 (Table 1) and at CB1 (Table 2) was 13 nM in each case.

Take `N=C(N/C(=N\S(=O)(=O)c1ccc(Cl)cc1)N1CC(c2ccccc2)C(c2ccc(Cl)cc2)=N1)c1ccccc1` (stereo not shown) [Compound 8]: the Ki at CB1 (Table 1) and on CB1 (Table 2) was 26 nM in each case.

Regarding `N=C(N/C(=N\S(=O)(=O)c1ccc(Cl)cc1)N1CC(c2ccccc2)C(c2ccc(Cl)cc2)=N1)c1ccncc1` (stereo not shown) [Compound 12], the Ki at CB1 (Table 1) and at CB1 (Table 2) was 34 nM each time.

For `CNC(N)=NC(=NS(=O)(=O)c1ccc(Cl)cc1)N1CC(c2ccccc2)C(c2ccc(Cl)cc2)=N1` (stereo not shown) [Compound 45], the affinity on CB1 (Table 2), expressed as Ki, was 327 nM.

On to `N=C(N/C(=N\S(=O)(=O)c1ccc(Cl)cc1)N1CC(c2ccccc2)C(c2ccc(Cl)cc2)=N1)N1CCCC1` (stereo not shown) [Compound 55], for which the Ki at CB1 (Table 1) and on CB1 (Table 2) was 241 nM in each case.

As for `NN/C(=N\S(=O)(=O)c1ccc(Cl)cc1)N1CC(c2ccccc2)C(c2ccc(Cl)cc2)=N1` (stereo not shown) [Compound 73], the Ki at CB1 (Table 1) and at CB1 (Table 2) was 33 nM throughout.

Take `Cc1c(C(=O)NN2CCCCC2)nn(-c2ccc(Cl)cc2Cl)c1-c1ccc(Cl)cc1` [rimonabant, reference compound]: the AMPK activity result in the data set on recombinant human AMPK is on record as “no effect”. In addition, the “CCl4-induced elevation” value in data set [2] (setting [4]) was “not by rimonabant”.
